How the values were obtained:
[1] = molecular target: T1, HBV genotype D RNAseH (HRHPL) (Hepatitis B virus genotype D subtype ayw, UniProt P03156, INS679M); assay: Oligonucleotide-directed RNAseH cleavage assay, HBV genotype D; format: biochemical; conditions: for Activity vs. HBV Biochemical vs. gtD: class by concentration giving inhibition (10, 20, 60 μM)
T1 construct: HRHPL contains HBV genotype D (Genbank V01460) polymerase residues 684-845; made in house; host or cells: E. coli BL21 codon+
Description: (§1) For the oligonucleotide-directed RNAseH cleavage assay (Gong et al., 2001), 6 μl protein extract (typical protein concentration 2.8 mg/ml) was mixed with 0.5 μg internally ^32P-labeled DRF+ RNA (nucleotides 2401-2605 of the duck HBV genome plus 60 nucleotides of flanking sequences from pBluescript) and 3 μg oligonucleotide D2507- or its corresponding negative control D2526+ on ice in 20 μl under the conditions in Table 1. Some reactions in FIG. 5 employed oligonucleotide D2543M-Sal or its D2453+ negative control as indicated. The reactions were incubated at 42° C. for 90 min. and terminated by addition of Laemmli protein loading buffer and boiling. The samples were resolved by 12% SDS-PAGE, the gels were stained with Coomassie blue to monitor protein loading, and labeled RNA was detected by autoradiography. Candidate inhibitors were dissolved in DMSO and added at the indicated concentrations during assembly of the reactions. Control reactions lacking the compounds contained DMSO as a vehicle control. The RNAseH autoradiograms were scanned and quantified with ImageJ.
(§2) Oligonucleotide-directed RNAseH cleavage assays (Gong et al., 2001) were performed as described (Tavis et al., 2013). Briefly, HBV RNAseH extracts were mixed with a 264 nt-long internally ^32P-labeled RNA plus an excess of a complementary DNA oligonucleotide or its inverse-complement as a negative control in a final concentration of 65 mM Tris pH 8.0, 190 mM NaCl, 5 mM MgCl2, 5 mM dTT, 0.05% NP40, and 6% glycerol. βTJ was dissolved in DMSO and added at the indicated concentrations; the final concentration of DMSO in all reactions was 1%. The reactions were incubated at 42° C. for 90 min. and terminated by addition of Laemmli protein electrophoresis buffer. The samples were resolved by SDS-PAGE, labeled RNA was detected by autoradiography, the autoradiograms were scanned, and the RNA cleavage products were quantified with ImageJ (National Institutes of Health). IC50 values were calculated by non-linear regression using GraphPad Prism (GraphPad Software, Inc.).

human RNAseH1 = molecular target: T2, human RNAseH1 (Homo sapiens, UniProt O60930); assay: Oligonucleotide-directed RNAseH assay, recombinant human RNAseH1; format: biochemical; conditions: class by concentration giving inhibition (10, 20, 60 μM)
T2 construct: hexahistidine (N); made in house; host or cells: E. coli BL21 codon+
T2 sequence (O60930 1-286): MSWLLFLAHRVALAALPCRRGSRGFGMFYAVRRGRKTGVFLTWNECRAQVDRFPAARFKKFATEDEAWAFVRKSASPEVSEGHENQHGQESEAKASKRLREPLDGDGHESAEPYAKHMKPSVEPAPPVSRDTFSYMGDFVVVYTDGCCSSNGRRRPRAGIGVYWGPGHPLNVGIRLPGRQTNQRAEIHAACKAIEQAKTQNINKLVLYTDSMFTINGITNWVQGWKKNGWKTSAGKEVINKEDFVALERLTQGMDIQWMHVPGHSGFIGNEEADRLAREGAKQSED
Description: as §1, with “ImageJ. The oligonucleotides were: D2526+([…]; SEQ ID NO:8), D2507-([…]; SEQ ID NO:9), D2453+([…]; SEQ ID NO:10), and D2543M-Sal ([…]; SEQ ID NO:11).” for “ImageJ.”
Therefore, the inventors cloned the human RNAseH1 with an N-terminal hexahistidine tag, expressed it in E. coli, and purified the protein by nickel affinity chromatography. […] This enzyme was active in the oligonucleotide-directed and fluorescent RNAseH assays (FIG. 10B and data not shown). To determine how inhibition of human RNAseH1 compared to inhibition of the HBV RNAseH, the inventor titrated the RNAaseH1 enzyme to yield similar levels of activity as the HBV enzyme, and then the inventor directly compared the ability of compounds #8-12 to inhibit human RNAseH1 and HRHPL at 10 μM. […] Therefore, it is possible to inhibit the HBV RNAseH without inhibiting human RNAseH1.
as §2

HBV = HBV genomic replication assays (Table 2); format: cell-based, Hepatitis B virus; conditions: class by active concentration
Description: Huh7 cells were maintained in Dulbecco's modified Eagle's medium with 10% fetal bovine serum at 37° C. in 5% CO2. Cells were seeded into 60 mm dishes and transfected at 70% confluency with 2.6 μg of plasmids using TransIT-LT1 (Mirus, Inc.). Test compounds were added the morning following transfection at 10 or 50 μM, and fresh medium containing the compounds was provided every 1-2 days. Four or five days post-transfection HBV cores were isolated by lysis of the cells in 10 mM Tris pH 7.5, 1 mM EDTA, 0.25% NP40, 50 mM NaCl, and 8% sucrose followed by sedimentation through a 30% sucrose cushion as described (Travis, et al., 1998). Viral DNAs were isolated from cytoplasmic core particle preparations by proteinase K digestion followed by phenol/chloroform extraction as described (Gong et al., 2001). Duplicate aliquots of the nucleic acids were treated with 2 U E. coli DNAse-free RNAseH (Invitrogen) at 37° C. for 30 min. or were mock treated. The nucleic acid samples were resolved by electrophoresis on 1.2% agarose gels and detected by Southern blotting with ^32P-labeled HBV DNA as a probe. […]

T1 sequence (P03156 680-832, added parts left off, stated change not applied): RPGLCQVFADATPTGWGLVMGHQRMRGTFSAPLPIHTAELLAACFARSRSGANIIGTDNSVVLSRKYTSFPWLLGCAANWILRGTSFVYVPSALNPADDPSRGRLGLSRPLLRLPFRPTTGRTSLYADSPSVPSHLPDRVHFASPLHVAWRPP

| Compound | Activity vs. HBV Biochemical vs. gtD [1] | Activity vs. human RNAseH1 (human RNAseH1) | further results |
| --- | --- | --- | --- |
| Cc1cc(C(F)(F)F)c(C#N)c(=O)[nH]1 [Compound 19] | − (− no inhibition at 60 μM) |  |  |
| N#Cc1cc2ccccc2oc1=N [Compound 21] | − (− no inhibition at 60 μM) |  |  |
| CCOC(=O)c1sc(NC(=O)CSc2nnc(-c3ccc(Cl)cc3)o2)c(C#N)c1C [Compound 24] | − (− no inhibition at 60 μM) |  |  |
| N#Cc1c(NC(=O)CSc2nnc(Cc3ccccc3)o2)sc2c1CCCC2 [Compound 25] | − (− no inhibition at 60 μM) |  |  |
| CCOC(=O)c1sc(NC(=O)CSc2nc(C)cc(-c3ccccc3)n2)c(C#N)c1C [Compound 26] | − (− no inhibition at 60 μM) |  |  |
| CCOC(=O)c1sc(NC(=O)CSc2nccc(C)n2)c(C#N)c1C [Compound 27] | − (− no inhibition at 60 μM) |  |  |
| CCOC(=O)c1sc(NC(=O)CSc2nnc[nH]2)c(C#N)c1C [Compound 28] | − (− no inhibition at 60 μM) | + (+ inhibition at 60 μM) |  |
| N#Cc1c(NC(=O)CSc2nnc(C3CC3)o2)sc2c1CCC2 [Compound 32] | − (− no inhibition at 60 μM) |  |  |
| Cc1ccc2oc(=O)c(C#N)c(C)c2c1 [Compound 33] | − (− no inhibition at 60 μM) |  |  |
| CCOC(=O)c1sc(NC(=O)CSc2ccc(Cl)cc2)c(C#N)c1C [Compound 37] | − (− no inhibition at 60 μM) |  |  |
| Cc1cc(C2CCCCC2)n(O)c(=O)c1 [Compound 41, Ciclopirox, reference compound] | − (− no inhibition at 60 μM) | + (+ inhibition at 60 μM) |  |
| CCOC(=O)c1cc2ccccc2n(O)c1=O [Compound 42] | − (− no inhibition at 60 μM) | + (+ inhibition at 60 μM) |  |
| Cc1cc(C)n(O)c(=O)c1C#N [Compound 44] | − (− no inhibition at 60 μM) | − (− no inhibition at 60 μM) |  |
| CC(C)=CCc1ccc(O)c(=O)cc1C(C)C [Compound 49, Nootkatin] | ++ (++ inhibition at 20 μM) | − (− no inhibition at 60 μM) |  |
| O=Nc1ccc(O)c(=O)cc1 [Compound 50, 5-nitrosotropolone] | ++ (++ inhibition at 20 μM) | − (− no inhibition at 60 μM) | Activity vs. HBV Genomic Replication (HBV): + (+, activity detectable at >10 μM) |
| O=C(Oc1cccccc1=O)c1ccc([N+](=O)[O-])cc1 [Compound 51, tropolone p-nitrobenzoate] | + (+ inhibition at 60 μM) |  |  |

| Compound | Activity vs. HBV Biochemical vs. gtD [1] | Activity vs. human RNAseH1 (human RNAseH1) | further results |
| --- | --- | --- | --- |
| O=C(Nc1ccc(O)c(=O)cc1)c1ccccc1 [Compound 52] | − (− no inhibition at 60 μM) | − (− no inhibition at 60 μM) |  |
| O=c1ccccc(Br)c1O [Compound 54, 3-bromotropolone] | − (− no inhibition at 60 μM) |  |  |
| CC(=O)NC(CCc1ccc(Cl)c(Cl)c1)c1cccc(O)c(=O)c1 (stereo not drawn) [Compound 55] | + (+ inhibition at 60 μM) | + (+ inhibition at 60 μM) |  |
| O=c1cccccc1Cl [Compound 57, 2-chlorotropone] | − (− no inhibition at 60 μM) |  |  |
| Cc1cc(C)c(OC(=O)c2ccc(Cl)cc2)c(=O)c(C)c1 [Compound 59] | − (− no inhibition at 60 μM) | + (+ inhibition at 60 μM) |  |
| Cc1ccc(S(=O)(=O)Oc2cccccc2=O)cc1 [Compound 61] | − (− no inhibition at 60 μM) | ++ (++ inhibition at 20 μM) |  |
| O=C(Oc1cccccc1=O)c1ccccc1 [Compound 62] | + (+ inhibition at 60 μM) |  |  |
| O=C(Oc1cccccc1=O)c1ccc(Cl)cc1 [Compound 63] | − (− no inhibition at 60 μM) |  |  |
| CCn1cc(C(=O)O)c(=O)c2cc3c(cc21)OCO3 [Compound 65] | − (− no inhibition at 60 μM) |  |  |
| O=C(O)c1cn(C2CC2)c2cc(Cl)c(F)cc2c1=O [Compound 66] | − (− no inhibition at 60 μM) |  |  |
| CC1COc2c(N3CCN(C)CC3)c(F)cc3c(=O)c(C(=O)O)cn1c23 (stereo not drawn) [Compound 68] | − (− no inhibition at 60 μM) |  |  |
| CCn1cc(C(=O)O)c(=O)c2ccc(C)nc21 [Compound 70] | − (− no inhibition at 60 μM) |  |  |
| CCN1C[C@H](C)n2c(c(O)c3c(=O)n(Cc4ccc(F)c(Cl)c4)nc(C(=O)NC)c32)C1=O [Compound 74, reference compound] | − (− no inhibition at 60 μM) |  |  |
| Cn1c(C(C)(C)N)nc(C(=O)NCc2ccc(F)cc2)c(O)c1=O [Compound 77, reference compound] | − (− no inhibition at 60 μM) |  |  |
| CC(C)S[C@@H]1O[C@H](CO)[C@H](O)[C@H](O)[C@H]1O [IPTG, reference compound] |  |  | RNAseH activity of HRHPL relative to the DMSO vehicle control ([1]; irrelevant compounds at 10 μM, pooled): 52±9% |

Reference: patent US10329542B2, “HBV RNAse H purification and enzyme inhibitors” (Saint Louis University, priority 2012, dated 2019)
